ChEMBL document CHEMBL1125580, “Synthesis and in vivo photodynamic activity of some bacteriochlorin derivatives against bladder tumors in rodents” (1991)

Test system: Rattus norvegicus
Assay: Compound was evaluated in vivo for the effective dose of irradiation that causes antitumor activity
Format: functional
Conditions: light or radiation study

SMILES	ED50 [mg/kg]
CCC1=C(CC)c2cc3[nH]c(cc4[nH]c(cc5nc(cc1n2)C(=O)C5(CC)CC)c(CC)c4CC)C1(CC)C3=CCC(C(=O)OC)=C1C(=O)OC.CCC1=C(CC)c2cc3[nH]c(cc4[nH]c(cc5nc(cc1n2)C1=CCC(C(=O)OC)=C(C(=O)OC)C15CC)c(CC)c4CC)C(=O)C3(CC)CC (stereo not drawn)	1
C=CC1=C(CC)/C2=C/c3[nH]c(c(CC)c3CC)/C=C3N=C(/C=c4\[nH]/c(c(CC)c4CC)=C\C1N2)C(CC)(CC)C\3=O.C=CC1=C(CC)C2/C=c3\[nH]/c(c(CC)c3CC)=C\C3=NC(=C\c4[nH]c(c(CC)c4CC)/C=C/1N2)/C(=O)C3(CC)CC (mixture of isomers)	2.5
CCC1=C(CC)c2cc3[nH]c(cc4[nH]c(cc5nc(cc1n2)C(=O)C5(CC)CC)c(CC)c4CC)C1(CC)C3=CCC(C#N)(C#N)C1(C#N)C#N.CCC1=C(CC)c2cc3[nH]c(cc4[nH]c(cc5nc(cc1n2)C1=CCC(C#N)(C#N)C(C#N)(C#N)C15CC)c(CC)c4CC)C(=O)C3(CC)CC (mixture of isomers)	2.5
